Results taken from publication PMC6934498, “Neferine induces autophagy-dependent cell death in apoptosis-resistant cancers via ryanodine receptor and Ca^2+-dependent mechanism” (Scientific Reports, 2019).

Molecular target: T1, SERCA1A (sarcoplasmic/endoplasmic reticulum Ca2+ ATPase) (Oryctolagus cuniculus, UniProt P04191)
T1 construct: gene ATP2A1; purified rabbit skeletal muscle SR membranes expressing the SERCA1A isoform
Test: coupled-enzyme ATPase assay on purified SERCA1A from rabbit skeletal muscle
Format: biochemical

T1 sequence (P04191 1-993): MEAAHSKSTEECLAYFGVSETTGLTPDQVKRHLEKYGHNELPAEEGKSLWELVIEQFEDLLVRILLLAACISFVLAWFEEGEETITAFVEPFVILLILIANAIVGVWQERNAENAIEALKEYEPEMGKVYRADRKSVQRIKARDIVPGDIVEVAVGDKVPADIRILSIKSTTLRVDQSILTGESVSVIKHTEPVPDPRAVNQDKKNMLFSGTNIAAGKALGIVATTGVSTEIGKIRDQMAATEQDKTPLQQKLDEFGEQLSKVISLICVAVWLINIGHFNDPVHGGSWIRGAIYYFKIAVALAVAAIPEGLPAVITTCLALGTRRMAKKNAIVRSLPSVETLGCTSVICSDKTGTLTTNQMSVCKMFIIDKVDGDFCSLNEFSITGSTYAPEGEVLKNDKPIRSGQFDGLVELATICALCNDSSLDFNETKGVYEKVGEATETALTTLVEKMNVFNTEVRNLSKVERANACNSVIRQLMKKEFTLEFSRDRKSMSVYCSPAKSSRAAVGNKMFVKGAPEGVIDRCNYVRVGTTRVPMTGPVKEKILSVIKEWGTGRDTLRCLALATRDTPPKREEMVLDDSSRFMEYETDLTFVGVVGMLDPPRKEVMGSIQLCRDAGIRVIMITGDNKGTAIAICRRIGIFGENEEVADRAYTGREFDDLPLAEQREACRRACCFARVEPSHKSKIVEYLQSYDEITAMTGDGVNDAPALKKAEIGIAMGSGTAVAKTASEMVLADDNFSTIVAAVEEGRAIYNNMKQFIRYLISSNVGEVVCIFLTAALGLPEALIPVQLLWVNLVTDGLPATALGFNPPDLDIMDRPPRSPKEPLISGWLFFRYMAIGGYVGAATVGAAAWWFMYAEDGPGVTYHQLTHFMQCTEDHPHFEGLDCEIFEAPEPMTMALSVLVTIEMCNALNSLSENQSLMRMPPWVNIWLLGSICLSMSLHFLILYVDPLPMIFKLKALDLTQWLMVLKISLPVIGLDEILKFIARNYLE

SMILES: COc1ccc(C[C@@H]2c3cc(Oc4cc(C[C@@H]5c6cc(OC)c(OC)cc6CCN5C)ccc4O)c(OC)cc3CCN2C)cc1 [neferine]
- IC50: 320 ± 70 µM
